Source: ChEMBL document CHEMBL4261540, “Approaches to selective fibroblast growth factor receptor 4 inhibition through targeting the ATP-pocket middle-hinge region” (Medchemcomm, 2017)
Calls of active or inactive are those of the source. No cut-off for these calls is given here.

What was measured:
[1] = target: T1, Fibroblast growth factor receptor 4 (Homo sapiens, UniProt P22455)
[2] = target: Fibroblast growth factor receptor 4 (Homo sapiens, UniProt P22455, C552A)
[3] = target: Fibroblast growth factor receptor 4 (Homo sapiens, UniProt P22455, C477A)
Sequence of Fibroblast growth factor receptor 4 (Homo sapiens, UniProt P22455, C477A) (P22455 22-802 C477A limits assumed): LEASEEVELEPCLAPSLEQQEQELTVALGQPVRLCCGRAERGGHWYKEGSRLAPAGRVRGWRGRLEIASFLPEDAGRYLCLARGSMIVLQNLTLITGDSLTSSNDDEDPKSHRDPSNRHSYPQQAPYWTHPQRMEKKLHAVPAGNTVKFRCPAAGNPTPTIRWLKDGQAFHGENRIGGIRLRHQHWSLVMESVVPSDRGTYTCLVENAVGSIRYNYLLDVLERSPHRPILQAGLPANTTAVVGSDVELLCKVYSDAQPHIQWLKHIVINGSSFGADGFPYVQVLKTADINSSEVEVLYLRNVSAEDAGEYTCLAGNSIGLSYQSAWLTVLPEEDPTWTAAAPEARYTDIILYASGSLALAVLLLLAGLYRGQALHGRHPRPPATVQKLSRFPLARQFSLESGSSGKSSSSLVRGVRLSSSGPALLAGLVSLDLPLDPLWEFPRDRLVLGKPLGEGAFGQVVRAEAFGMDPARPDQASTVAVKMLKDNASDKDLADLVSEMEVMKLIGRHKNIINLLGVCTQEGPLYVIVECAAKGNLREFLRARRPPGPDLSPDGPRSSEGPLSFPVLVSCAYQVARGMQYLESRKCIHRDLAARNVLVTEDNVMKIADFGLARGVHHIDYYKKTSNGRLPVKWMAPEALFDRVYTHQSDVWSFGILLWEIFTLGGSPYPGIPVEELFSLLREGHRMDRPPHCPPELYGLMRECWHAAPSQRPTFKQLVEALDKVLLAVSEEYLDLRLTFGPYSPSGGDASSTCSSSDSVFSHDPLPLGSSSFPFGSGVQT

[4] = target: Fibroblast growth factor receptor 2 (Homo sapiens, UniProt P21802); assay type: ADME
Sequence of Fibroblast growth factor receptor 2 (P21802 whole entry): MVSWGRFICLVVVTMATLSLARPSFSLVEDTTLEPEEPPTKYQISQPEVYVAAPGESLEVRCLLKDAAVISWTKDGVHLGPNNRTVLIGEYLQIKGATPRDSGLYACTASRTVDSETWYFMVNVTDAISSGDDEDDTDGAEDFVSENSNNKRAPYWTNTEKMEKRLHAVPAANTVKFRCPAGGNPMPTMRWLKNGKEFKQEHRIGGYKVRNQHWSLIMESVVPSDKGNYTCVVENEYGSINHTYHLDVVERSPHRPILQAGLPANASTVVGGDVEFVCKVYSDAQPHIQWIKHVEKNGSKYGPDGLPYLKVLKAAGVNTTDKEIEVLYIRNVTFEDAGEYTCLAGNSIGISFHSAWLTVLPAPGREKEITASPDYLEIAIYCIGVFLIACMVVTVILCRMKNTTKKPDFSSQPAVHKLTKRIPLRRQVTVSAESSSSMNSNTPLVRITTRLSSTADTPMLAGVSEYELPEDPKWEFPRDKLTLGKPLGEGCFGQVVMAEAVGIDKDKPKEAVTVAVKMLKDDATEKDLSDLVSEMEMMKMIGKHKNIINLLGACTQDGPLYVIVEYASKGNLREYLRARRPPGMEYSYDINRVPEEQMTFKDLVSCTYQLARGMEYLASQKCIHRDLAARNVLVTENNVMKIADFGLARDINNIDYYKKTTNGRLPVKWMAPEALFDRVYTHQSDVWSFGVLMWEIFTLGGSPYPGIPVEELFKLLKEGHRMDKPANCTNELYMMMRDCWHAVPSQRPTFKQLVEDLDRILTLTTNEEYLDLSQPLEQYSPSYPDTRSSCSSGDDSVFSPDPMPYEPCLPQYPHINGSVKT

[5] = target: Fibroblast growth factor receptor 1 (Homo sapiens, UniProt P11362)
Sequence of Fibroblast growth factor receptor 1 (P11362 whole entry): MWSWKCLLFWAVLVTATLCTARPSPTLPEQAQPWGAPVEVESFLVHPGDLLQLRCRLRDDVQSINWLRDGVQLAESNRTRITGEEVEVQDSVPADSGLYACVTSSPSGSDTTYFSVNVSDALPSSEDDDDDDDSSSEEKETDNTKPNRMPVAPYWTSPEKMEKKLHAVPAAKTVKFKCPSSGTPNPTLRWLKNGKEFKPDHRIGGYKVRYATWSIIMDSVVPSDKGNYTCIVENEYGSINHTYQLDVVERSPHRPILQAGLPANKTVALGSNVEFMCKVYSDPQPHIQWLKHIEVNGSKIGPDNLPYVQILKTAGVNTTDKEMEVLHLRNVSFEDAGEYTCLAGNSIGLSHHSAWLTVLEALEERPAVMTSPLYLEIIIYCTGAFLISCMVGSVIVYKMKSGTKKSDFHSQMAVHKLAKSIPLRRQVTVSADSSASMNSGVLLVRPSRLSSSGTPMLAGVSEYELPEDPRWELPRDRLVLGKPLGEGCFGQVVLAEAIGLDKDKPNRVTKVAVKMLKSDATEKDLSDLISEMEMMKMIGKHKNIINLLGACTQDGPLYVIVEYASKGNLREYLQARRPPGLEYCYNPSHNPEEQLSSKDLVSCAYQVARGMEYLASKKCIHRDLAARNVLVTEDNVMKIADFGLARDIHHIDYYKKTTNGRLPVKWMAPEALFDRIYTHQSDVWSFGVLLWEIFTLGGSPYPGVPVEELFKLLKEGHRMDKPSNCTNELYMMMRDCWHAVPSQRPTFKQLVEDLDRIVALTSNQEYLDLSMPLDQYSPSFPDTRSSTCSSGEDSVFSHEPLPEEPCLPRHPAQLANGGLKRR

[6] = target: Fibroblast growth factor receptor 3 (Homo sapiens, UniProt P22607)
Sequence of Fibroblast growth factor receptor 3 (P22607 whole entry): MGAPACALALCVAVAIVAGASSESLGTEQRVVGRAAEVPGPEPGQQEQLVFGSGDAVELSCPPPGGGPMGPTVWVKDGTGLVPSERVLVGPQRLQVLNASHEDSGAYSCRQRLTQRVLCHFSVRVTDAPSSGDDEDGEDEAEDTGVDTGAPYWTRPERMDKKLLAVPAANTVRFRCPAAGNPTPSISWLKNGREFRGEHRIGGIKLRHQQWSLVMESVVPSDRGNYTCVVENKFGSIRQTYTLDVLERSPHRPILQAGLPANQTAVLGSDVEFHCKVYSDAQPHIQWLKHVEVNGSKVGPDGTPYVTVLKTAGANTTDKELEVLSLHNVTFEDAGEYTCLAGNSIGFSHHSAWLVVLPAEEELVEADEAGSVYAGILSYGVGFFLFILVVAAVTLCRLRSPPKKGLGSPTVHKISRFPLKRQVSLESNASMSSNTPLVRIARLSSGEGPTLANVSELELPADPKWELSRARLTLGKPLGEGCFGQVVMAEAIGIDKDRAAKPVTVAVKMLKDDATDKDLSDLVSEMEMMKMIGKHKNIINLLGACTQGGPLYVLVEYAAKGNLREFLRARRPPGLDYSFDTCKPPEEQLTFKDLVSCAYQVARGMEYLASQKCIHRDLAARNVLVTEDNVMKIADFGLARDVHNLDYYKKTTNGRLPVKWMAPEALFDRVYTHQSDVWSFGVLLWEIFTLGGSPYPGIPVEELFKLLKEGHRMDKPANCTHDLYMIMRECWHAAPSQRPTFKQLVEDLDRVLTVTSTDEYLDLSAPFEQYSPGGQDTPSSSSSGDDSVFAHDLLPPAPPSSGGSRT

[7] = target: T1, Fibroblast growth factor receptor 4; remark: listed apart in the source
[8] = target: T2, MAP kinase-activated protein kinase 2 (Homo sapiens, UniProt P49137); test: Inhibition of human MK2 by [gamma33P]ATP assay
Target sequence in this assay (P49137 whole entry): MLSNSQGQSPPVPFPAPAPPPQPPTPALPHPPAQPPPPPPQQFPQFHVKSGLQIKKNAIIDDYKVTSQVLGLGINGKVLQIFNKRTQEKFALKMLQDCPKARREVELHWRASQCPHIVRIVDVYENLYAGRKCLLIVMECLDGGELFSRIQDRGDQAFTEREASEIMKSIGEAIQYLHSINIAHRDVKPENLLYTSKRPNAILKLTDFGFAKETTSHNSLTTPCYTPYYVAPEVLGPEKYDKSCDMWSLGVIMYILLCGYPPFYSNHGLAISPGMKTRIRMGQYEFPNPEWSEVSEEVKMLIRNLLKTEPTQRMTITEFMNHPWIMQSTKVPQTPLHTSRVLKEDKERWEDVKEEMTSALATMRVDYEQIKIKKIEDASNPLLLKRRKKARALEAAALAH

[9] = target: T2, MAP kinase-activated protein kinase 2; test: Inhibition of human MK2 at 10 uM by [gamma33P]ATP assay
Target sequence in this assay (P49137 whole entry, looked up): as the sequence (P49137 whole entry) above

T1 sequence (P22455 whole entry): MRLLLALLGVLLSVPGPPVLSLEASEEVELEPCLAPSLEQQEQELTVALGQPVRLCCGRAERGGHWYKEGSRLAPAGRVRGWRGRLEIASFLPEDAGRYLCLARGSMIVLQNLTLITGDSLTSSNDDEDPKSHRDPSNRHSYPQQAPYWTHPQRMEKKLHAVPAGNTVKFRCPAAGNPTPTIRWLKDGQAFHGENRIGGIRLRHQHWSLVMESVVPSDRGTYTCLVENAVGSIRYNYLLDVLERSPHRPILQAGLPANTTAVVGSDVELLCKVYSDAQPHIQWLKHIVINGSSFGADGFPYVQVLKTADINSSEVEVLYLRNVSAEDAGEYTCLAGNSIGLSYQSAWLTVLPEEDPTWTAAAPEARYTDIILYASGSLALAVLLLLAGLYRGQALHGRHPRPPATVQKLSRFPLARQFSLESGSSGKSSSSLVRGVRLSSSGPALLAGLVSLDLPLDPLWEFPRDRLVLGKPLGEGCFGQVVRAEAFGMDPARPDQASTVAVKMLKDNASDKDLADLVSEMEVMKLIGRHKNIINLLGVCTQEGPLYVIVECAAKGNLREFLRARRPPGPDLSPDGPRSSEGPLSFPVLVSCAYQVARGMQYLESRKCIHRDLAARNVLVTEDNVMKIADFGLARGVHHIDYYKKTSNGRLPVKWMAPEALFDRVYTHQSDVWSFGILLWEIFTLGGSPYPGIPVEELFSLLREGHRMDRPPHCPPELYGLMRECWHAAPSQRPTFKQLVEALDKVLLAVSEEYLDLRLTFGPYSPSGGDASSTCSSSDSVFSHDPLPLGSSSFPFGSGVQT
Sequence of Fibroblast growth factor receptor 4 (Homo sapiens, UniProt P22455, C552A) (P22455 22-802 C552A limits assumed): as the sequence (P22455 22-802 C477A limits assumed) above, with A456C, C531A counted along it

| IC50 [1] | IC50 [2] | IC50 [3] | IC50 [4] | IC50 [5] | IC50 [6] | IC50 [7] | IC50 [8] | inhibition [9] | SMILES |
| --- | --- | --- | --- | --- | --- | --- | --- | --- | --- |
| > 10 µM | > 10 µM | > 10 µM |  |  |  |  |  |  | O=Cc1ccc2cccc(C(=O)Nc3ccc(C(F)(F)F)cc3)c2n1 |
| > 10 µM | > 10 µM | > 10 µM |  |  |  |  |  |  | O=C(Nc1ccc(C(F)(F)F)cn1)c1cccc2cccnc12 |
|  |  |  | 4.43 µM | 6.35 µM | 8 µM | 0.029 µM |  |  | CC(C)Oc1cc(N2CCC(N3CCN(C)CC3)CC2)ccc1Nc1ncc(Cl)c(Nc2ccccc2S(=O)(=O)C(C)C)n1 |
|  |  |  | > 10 µM | > 10 µM | > 10 µM |  | 2.3 µM | Active | O=Cc1ccc2cccc(C(=O)Nc3ccc(C(F)(F)F)cn3)c2n1 |
|  |  |  | > 10 µM | > 10 µM | > 10 µM |  |  |  | O=[N+]([O-])c1ccc(Cl)nc1Nc1ncc(C(F)(F)F)cc1Cl |
|  |  |  | 0.363 µM |  | 3.5 µM |  |  |  | CC(C)COc1cc(N2CCC(N(C)C)CC2)ccc1Nc1ncc(C#N)c(N[C@H]2[C@@H](C(N)=O)[C@@H]3C=C[C@H]2C3)n1 |
|  |  |  | 1.7 µM | 3.2 µM | 0.78 µM |  |  |  | C=CC(=O)Nc1cccc(C)c1Nc1ncc2cc(-c3c(Cl)c(OC)cc(OC)c3Cl)ccc2n1 |
